Laboratory results published in paper doi:10.1101/2024.08.19.608619, “Discovery of potent SARS-CoV-2 nsp3 macrodomain inhibitors uncovers lack of translation to cellular antiviral response” (bioRxiv, 2024).
≈ marks a conversion by molar mass, not a printed value. Where “and” joins values, the source holds several entries; their conditions need not be identical. Equal values may be shown once. Read-outs that look alike come from different tables or passages of the source.

How the values were obtained:
Abl(h) = target: T1, Abl(h) (Homo sapiens, UniProt P00519); test: biochemical; set-up: In vitro kinase panel profiling, per cent remaining kinase activity at 10 uM; details: atp_concentration=45, read-out: % of control remaining
T1 construct: gene ABL1
T1 sequence (P00519 whole entry): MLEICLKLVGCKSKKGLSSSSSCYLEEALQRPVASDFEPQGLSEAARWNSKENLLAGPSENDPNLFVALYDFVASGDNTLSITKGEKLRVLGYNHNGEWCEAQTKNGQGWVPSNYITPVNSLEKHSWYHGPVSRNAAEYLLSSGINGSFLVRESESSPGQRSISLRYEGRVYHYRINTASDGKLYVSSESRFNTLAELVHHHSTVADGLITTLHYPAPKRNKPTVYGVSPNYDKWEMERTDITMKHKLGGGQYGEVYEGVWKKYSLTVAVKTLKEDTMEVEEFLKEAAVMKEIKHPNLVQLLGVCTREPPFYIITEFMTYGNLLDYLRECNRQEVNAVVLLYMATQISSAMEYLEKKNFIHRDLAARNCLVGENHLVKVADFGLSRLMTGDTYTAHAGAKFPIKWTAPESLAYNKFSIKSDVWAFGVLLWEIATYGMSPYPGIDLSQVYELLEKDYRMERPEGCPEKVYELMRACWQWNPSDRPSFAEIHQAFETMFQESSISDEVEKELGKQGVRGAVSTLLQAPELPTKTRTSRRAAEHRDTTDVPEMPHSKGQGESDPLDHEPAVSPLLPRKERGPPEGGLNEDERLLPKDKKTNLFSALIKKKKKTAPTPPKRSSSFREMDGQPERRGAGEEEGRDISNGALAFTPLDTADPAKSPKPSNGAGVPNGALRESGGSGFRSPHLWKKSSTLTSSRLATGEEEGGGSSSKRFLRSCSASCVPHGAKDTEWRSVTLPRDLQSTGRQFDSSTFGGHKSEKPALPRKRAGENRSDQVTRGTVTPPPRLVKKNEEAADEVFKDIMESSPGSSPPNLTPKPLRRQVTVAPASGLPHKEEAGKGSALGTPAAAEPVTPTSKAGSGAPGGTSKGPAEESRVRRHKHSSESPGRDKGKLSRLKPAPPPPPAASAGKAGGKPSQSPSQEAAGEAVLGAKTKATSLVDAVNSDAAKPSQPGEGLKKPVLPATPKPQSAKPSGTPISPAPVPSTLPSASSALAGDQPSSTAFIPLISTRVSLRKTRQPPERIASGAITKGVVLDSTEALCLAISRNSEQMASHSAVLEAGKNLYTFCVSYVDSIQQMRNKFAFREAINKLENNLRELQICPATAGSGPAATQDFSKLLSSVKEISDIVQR
Source text: (§1) We derisk potential for off-target activity by profiling the compound in a CEREP panel, a standard secondary pharmacology assessment, as well as a kinase panel to derisk a potential hinge-binding motif in our leads, and a PARP panel to derisk activity against human […]. Reassuringly, the compounds are selective, with the only off-targets being moderate human CHRM2 and KOR receptors activity associated with ASAP-0011198.

CDK1/cyclinB(h) = CDK1/cyclinB(h) (Homo sapiens, UniProt P06493); test: biochemical; set-up: In vitro kinase panel profiling, per cent remaining kinase activity at 10 uM; details: atp_concentration=45, read-out: % of control remaining
Sequence of CDK1/cyclinB(h) (P06493 whole entry): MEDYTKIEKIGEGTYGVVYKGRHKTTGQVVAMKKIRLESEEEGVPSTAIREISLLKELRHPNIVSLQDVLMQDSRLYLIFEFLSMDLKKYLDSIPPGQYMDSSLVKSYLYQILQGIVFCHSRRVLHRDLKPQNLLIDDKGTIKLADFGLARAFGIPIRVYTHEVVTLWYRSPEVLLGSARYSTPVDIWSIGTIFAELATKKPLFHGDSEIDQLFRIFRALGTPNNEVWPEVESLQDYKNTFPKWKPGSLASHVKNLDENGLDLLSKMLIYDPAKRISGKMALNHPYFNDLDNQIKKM
Sequence of CDK1/cyclinB(h) (P14635 whole entry partner): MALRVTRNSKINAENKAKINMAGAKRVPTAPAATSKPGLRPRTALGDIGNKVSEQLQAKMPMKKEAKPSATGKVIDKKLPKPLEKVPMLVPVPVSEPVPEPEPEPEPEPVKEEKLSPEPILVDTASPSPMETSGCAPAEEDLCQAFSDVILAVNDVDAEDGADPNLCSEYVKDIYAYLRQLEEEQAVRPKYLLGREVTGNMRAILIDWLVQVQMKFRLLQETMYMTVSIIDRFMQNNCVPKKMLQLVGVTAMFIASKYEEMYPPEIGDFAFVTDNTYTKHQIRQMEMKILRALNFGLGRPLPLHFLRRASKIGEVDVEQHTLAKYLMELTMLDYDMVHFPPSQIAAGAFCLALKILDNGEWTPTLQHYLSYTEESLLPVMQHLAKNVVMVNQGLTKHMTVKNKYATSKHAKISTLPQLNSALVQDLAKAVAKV
Source text: as §1

CDK9/cyclin T1(h) = CDK9/cyclin T1(h) (Homo sapiens, UniProt P50750); test: biochemical; set-up: In vitro kinase panel profiling, per cent remaining kinase activity at 10 uM; details: atp_concentration=45, read-out: % of control remaining
Sequence of CDK9/cyclin T1(h) (P50750 whole entry): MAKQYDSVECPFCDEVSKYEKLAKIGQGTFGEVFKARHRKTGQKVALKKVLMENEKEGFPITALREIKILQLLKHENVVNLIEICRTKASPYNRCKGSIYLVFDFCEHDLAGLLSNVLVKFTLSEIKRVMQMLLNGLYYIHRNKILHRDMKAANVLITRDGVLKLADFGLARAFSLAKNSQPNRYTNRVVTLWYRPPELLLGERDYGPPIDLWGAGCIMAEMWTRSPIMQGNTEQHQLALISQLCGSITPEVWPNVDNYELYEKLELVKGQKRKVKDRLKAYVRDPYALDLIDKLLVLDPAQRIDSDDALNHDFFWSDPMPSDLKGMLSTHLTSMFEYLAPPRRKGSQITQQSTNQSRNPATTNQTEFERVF
Sequence of CDK9/cyclin T1(h) (O60563 whole entry partner): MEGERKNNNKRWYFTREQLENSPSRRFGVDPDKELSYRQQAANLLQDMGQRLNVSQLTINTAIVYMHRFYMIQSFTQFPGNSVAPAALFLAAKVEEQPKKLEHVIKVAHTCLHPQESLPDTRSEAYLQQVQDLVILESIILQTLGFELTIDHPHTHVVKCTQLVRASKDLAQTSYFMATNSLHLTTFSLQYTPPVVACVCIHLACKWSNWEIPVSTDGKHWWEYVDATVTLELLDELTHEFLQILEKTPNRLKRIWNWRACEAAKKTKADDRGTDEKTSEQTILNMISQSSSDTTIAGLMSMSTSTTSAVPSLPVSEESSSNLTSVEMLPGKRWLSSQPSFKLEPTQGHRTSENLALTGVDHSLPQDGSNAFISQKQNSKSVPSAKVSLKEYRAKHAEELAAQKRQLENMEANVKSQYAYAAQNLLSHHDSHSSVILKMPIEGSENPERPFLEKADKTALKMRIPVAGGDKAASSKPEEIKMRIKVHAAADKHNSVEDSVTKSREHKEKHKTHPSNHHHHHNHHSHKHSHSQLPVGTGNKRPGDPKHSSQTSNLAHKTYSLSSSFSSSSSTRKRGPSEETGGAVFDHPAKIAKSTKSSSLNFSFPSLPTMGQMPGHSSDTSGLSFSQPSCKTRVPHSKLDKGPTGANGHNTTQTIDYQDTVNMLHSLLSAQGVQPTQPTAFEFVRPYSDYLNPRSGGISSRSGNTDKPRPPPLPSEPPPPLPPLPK
Source text: as §1

CHK1(h) = target: T2, CHK1(h) (Homo sapiens, UniProt O14757); test: biochemical; set-up: In vitro kinase panel profiling, per cent remaining kinase activity at 10 uM; details: atp_concentration=90, read-out: % of control remaining
T2 construct: gene CHEK1
T2 sequence (O14757 1-476): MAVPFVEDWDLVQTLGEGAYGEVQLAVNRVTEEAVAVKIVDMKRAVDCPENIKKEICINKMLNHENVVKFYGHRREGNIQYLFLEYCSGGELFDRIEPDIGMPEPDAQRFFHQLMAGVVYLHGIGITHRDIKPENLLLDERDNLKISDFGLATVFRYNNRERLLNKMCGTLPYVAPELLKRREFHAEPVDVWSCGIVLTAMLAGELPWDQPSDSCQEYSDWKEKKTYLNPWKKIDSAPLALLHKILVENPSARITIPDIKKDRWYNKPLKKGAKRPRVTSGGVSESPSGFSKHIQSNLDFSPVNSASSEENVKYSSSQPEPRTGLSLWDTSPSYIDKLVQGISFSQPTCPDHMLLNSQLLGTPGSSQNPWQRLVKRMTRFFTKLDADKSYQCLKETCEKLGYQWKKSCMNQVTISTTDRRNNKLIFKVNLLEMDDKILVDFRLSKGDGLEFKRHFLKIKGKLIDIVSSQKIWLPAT
Source text: as §1

PDGFRβ(h) = target: T3, PDGFRβ(h) (Homo sapiens, UniProt P09619); test: biochemical; set-up: In vitro kinase panel profiling, per cent remaining kinase activity at 10 uM; details: atp_concentration=200, read-out: % of control remaining
T3 construct: gene PDGFRB
T3 sequence (P09619 whole entry): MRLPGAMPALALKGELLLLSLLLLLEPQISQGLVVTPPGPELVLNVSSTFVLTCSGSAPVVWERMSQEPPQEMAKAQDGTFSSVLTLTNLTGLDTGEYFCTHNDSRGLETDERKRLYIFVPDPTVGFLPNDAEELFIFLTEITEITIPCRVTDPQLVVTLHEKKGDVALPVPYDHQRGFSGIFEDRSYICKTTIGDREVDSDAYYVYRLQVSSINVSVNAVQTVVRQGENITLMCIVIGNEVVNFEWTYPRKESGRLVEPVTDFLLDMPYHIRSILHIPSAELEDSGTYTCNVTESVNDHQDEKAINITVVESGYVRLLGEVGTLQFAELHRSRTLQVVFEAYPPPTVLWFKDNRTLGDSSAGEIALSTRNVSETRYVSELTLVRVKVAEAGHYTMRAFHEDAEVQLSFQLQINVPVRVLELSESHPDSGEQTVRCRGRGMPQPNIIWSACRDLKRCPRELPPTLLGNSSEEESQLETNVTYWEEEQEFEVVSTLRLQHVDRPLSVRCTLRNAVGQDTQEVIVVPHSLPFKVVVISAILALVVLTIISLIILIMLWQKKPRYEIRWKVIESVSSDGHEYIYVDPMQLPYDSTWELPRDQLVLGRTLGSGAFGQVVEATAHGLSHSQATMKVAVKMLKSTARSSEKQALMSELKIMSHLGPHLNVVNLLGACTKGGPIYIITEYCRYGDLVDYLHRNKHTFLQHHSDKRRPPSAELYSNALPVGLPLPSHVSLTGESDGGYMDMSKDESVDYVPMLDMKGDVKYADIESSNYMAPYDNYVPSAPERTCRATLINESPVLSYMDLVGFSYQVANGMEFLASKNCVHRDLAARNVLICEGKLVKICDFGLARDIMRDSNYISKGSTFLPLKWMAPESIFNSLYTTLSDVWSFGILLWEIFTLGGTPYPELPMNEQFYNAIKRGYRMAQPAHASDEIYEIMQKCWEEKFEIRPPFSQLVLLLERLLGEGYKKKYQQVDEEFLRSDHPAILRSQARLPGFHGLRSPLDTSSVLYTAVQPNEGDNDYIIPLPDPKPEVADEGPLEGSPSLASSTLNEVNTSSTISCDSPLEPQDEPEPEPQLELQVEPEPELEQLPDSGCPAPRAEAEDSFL
Source text: as §1

[1] = target: T4, PI3 Kinase (p110β/p85α)(h) (Homo sapiens, UniProt P42338); test: biochemical; set-up: In vitro kinase panel profiling, per cent remaining kinase activity at 10 uM; details: atp_concentration=200, read-out: % of control remaining
T4 construct: gene PIK3CB
Source text: as §1

PKBα(h) = target: T5, PKBα(h) (Homo sapiens, UniProt P31749); test: biochemical; set-up: In vitro kinase panel profiling, per cent remaining kinase activity at 10 uM; details: atp_concentration=155, read-out: % of control remaining
T5 construct: gene AKT1
T5 sequence (P31749 whole entry): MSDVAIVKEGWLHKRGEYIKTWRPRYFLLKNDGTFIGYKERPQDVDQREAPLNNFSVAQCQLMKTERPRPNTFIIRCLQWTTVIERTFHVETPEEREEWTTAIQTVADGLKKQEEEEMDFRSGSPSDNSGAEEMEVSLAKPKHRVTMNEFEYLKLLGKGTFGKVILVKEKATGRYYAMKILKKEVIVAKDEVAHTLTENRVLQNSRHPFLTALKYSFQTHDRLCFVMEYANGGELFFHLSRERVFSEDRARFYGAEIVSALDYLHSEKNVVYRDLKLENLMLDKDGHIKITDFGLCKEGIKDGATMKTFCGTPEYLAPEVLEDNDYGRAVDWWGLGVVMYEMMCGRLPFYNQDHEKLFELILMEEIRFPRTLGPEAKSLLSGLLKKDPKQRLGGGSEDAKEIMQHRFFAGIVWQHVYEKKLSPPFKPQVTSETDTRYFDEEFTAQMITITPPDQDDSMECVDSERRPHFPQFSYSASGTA
Source text: as §1

SAPK2a(h) = target: T6, SAPK2a(h) (Homo sapiens, UniProt Q16539); test: biochemical; set-up: In vitro kinase panel profiling, per cent remaining kinase activity at 10 uM; details: atp_concentration=90, read-out: % of control remaining
T6 construct: gene MAPK14
T6 sequence (Q16539 whole entry): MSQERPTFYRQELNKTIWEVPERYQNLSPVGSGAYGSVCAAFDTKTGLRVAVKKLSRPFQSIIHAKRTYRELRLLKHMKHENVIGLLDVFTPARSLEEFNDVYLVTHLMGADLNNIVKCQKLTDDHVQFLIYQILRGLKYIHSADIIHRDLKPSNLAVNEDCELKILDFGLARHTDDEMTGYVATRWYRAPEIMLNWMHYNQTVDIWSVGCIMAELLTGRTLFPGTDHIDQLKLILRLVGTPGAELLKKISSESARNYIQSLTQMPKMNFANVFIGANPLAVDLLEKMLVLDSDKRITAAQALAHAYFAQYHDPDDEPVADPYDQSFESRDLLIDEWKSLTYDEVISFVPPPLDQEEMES
Source text: as §1

eEF-2K(h) = target: T7, eEF-2K(h) (Homo sapiens, UniProt O00418); test: biochemical; set-up: In vitro kinase panel profiling, per cent remaining kinase activity at 10 uM; details: atp_concentration=15, read-out: % of control remaining
T7 construct: gene EEF2K
T7 sequence (O00418 1-725): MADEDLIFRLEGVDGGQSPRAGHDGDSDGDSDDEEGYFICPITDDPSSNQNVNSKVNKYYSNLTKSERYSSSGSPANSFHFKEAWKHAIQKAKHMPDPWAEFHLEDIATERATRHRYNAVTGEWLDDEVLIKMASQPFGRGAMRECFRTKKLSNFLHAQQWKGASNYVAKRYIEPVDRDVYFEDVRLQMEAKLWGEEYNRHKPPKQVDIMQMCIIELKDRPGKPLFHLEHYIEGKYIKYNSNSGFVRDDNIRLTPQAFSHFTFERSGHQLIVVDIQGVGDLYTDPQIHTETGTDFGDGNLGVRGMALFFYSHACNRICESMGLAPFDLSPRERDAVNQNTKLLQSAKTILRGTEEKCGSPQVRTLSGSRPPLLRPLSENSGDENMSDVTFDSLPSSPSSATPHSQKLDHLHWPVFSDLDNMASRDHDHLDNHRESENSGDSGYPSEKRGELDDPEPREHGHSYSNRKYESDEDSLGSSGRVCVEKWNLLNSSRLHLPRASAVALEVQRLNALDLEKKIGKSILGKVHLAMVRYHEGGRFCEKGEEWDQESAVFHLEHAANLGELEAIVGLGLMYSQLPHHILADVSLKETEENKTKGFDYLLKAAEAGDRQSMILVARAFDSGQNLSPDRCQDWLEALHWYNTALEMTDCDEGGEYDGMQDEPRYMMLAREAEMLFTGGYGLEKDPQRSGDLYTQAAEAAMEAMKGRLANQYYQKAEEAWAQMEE
Source text: as §1

[2] = In vitro kinetic solubility; details: for solubility_mean: In vitro kinetic solubility, ph 7.4
[3] = Permeability Papp (AB) MDR1/MDCKII; details: for perc_recovery_a_to_b_mean / perc_recovery_a_to_b_inhibitor_mean: recovery A to B; for perc_recovery_b_to_a_mean / perc_recovery_b_to_a_inhibitor_mean: recovery B to A; for perc_recovery_a_to_b_inhibitor_mean / perc_recovery_b_to_a_inhibitor_mean: MDR1-MDCKII; for papp_b_to_a_mean: B to A
[4] = In vitro MDR1-MDCKII permeability, no inhibitor

Work on `Cc1nn(C)cc1-c1cc2c(NC(c3ccc4c(c3)S(=O)(=O)CCC4)C(C)C)ncnc2[nH]1` (stereo not drawn) [ASAP-0011446] yielded a logd (LogD) of 3.1, a logd (LogD; pH 7.4) of 3.1 and a remaining activity at 10 µM (Abl(h); batch_name=ASAP-0011446-002) of 76%. The remaining activity at 10 µM (CDK1/cyclinB(h); batch_name=ASAP-0011446-002) was 91%, the remaining activity at 10 µM (CDK9/cyclin T1(h); batch_name=ASAP-0011446-002) was 57% and the remaining activity at 10 µM (CHK1(h); batch_name=ASAP-0011446-002) was 102%. The remaining activity at 10 µM (PDGFRβ(h); batch_name=ASAP-0011446-002) was 97%, the remaining activity at 10 µM ([1]; batch_name=ASAP-0011446-002) was 105% and the remaining activity at 10 µM (PKBα(h); batch_name=ASAP-0011446-002) was 91%. The remaining activity at 10 µM (SAPK2a(h); batch_name=ASAP-0011446-002) was 98%, the remaining activity at 10 µM (eEF-2K(h); batch_name=ASAP-0011446-002) was 98% and the solubility kinetic [2] was 65 µM (≈ 30.2 µg/mL). The solubility ([2]; pH 7.4) was 65 µM (≈ 30.2 µg/mL), the papp_a_to_b_mean ([3]; In vitro MDR1-MDCKII permeability, A to B, mean) was 4.36 ×10⁻⁶ cm/s and the perc_recovery_a_to_b_mean ([3]; In vitro MDR1-MDCKII permeability, mean) was 77.0%. The perc_recovery_a_to_b_mean [3, 4] was 69.7%, the perc_recovery_b_to_a_mean [3, 4] was 63.5% and the perc_recovery_a_to_b_inhibitor_mean ([3]; with inhibitor Verapamil) was 87.7%. For the same molecule, the perc_recovery_b_to_a_inhibitor_mean ([3]; with inhibitor Verapamil) was 93.0% and the Papp A→B ([3]; dog, MDCK-MDR1, Papp (AB) MDR1/MDCKII, A to B) was 4.4 ×10⁻⁶ cm/s.

In the case of `C[C@H](C(=O)O)[C@@H](NC(=O)c1ncnc2[nH]ccc12)c1ccc(Br)cc1` [ASAP-0014722], the logd (LogD; pH 7.4, In vitro LogD) is reported as 0.6, the remaining activity at 10 µM (Abl(h); batch_name=ASAP-0014722-002) is reported as 97% and the remaining activity at 10 µM (CDK1/cyclinB(h); batch_name=ASAP-0014722-002) is reported as 92%. It also gave a remaining activity at 10 µM (CDK9/cyclin T1(h); batch_name=ASAP-0014722-002) of 103%, a remaining activity at 10 µM (CHK1(h); batch_name=ASAP-0014722-002) of 99% and a remaining activity at 10 µM (PDGFRβ(h); batch_name=ASAP-0014722-002) of 110%. It also gave a remaining activity at 10 µM ([1]; batch_name=ASAP-0014722-002) of 97%, a remaining activity at 10 µM (PKBα(h); batch_name=ASAP-0014722-002) of 95% and a remaining activity at 10 µM (SAPK2a(h); batch_name=ASAP-0014722-002) of 103%. The remaining activity at 10 µM (eEF-2K(h); batch_name=ASAP-0014722-002) was 85%, the solubility_mean [2] was 358 µM (≈ 144 µg/mL) and the papp_b_to_a_mean [3, 4] was 0.274 ×10⁻⁶ cm/s. The efflux_ratio [3, 4] was 8.67, the perc_recovery_a_to_b_mean [3, 4] was 89.1% and 77.4% and the perc_recovery_b_to_a_mean [3, 4] was 87.2%. The perc_recovery_a_to_b_inhibitor_mean ([3]; with inhibitor Cyclosporin A) was 80.9% and the perc_recovery_b_to_a_inhibitor_mean ([3]; with inhibitor Cyclosporin A) was 84.1%.

`COc1ccc([C@H](Cc2nnn[nH]2)NC(=O)c2ncnc3[nH]ccc23)cc1` [ASAP-0015381] gave a logd (LogD; pH 7.4, In vitro LogD) of -0.5, a remaining activity at 10 µM (Abl(h); batch_name=ASAP-0015381-001) of 102% and a remaining activity at 10 µM (CDK1/cyclinB(h); batch_name=ASAP-0015381-001) of 98%. It also gave a remaining activity at 10 µM (CDK9/cyclin T1(h); batch_name=ASAP-0015381-001) of 109%, a remaining activity at 10 µM (CHK1(h); batch_name=ASAP-0015381-001) of 110% and a remaining activity at 10 µM (PDGFRβ(h); batch_name=ASAP-0015381-001) of 103%. It also gave a remaining activity at 10 µM ([1]; batch_name=ASAP-0015381-001) of 97%, a remaining activity at 10 µM (PKBα(h); batch_name=ASAP-0015381-001) of 97% and a remaining activity at 10 µM (SAPK2a(h); batch_name=ASAP-0015381-001) of 103%. For the same molecule, the remaining activity at 10 µM (eEF-2K(h); batch_name=ASAP-0015381-001) was 96%, the solubility_mean [2] was 367 µM (≈ 134 µg/mL) and the papp_b_to_a_mean [3, 4] was 0.021 ×10⁻⁶ cm/s. For the same molecule, the efflux_ratio [3, 4] was 0.67, the perc_recovery_a_to_b_mean [3, 4] was 87.0% and 68.4% and the perc_recovery_b_to_a_mean [3, 4] was 84.4%. It also gave a perc_recovery_a_to_b_inhibitor_mean ([3]; with inhibitor Cyclosporin A) of 83.1% and a perc_recovery_b_to_a_inhibitor_mean ([3]; with inhibitor Cyclosporin A) of 85.5%.
